Series [1] is described as follows: maximum plasma concentration in human SAD/MAD clinical trials. It counts as in vivo. Particulars: SAD, Day 1, 3.5 mg.
Series [2] relates to normal subjects. As to the kind of experiment: Digit Symbol Substitution Test (DSST) in SAD study. It counts as in vivo, Human. As to conditions: daily dose as low as 1 mg. On the procedure: The impact of the test compound on cognition in normal subjects was assessed as described below. In these studies, subjects were treated with the test compound dissolved in cranberry juice.
The impact of the test compound on cognition in normal subjects was assessed in a SAD (Single Ascending Dose) study with the Digit Symbol Substitution Test (DSST). […] The positive effects of the test compound in the DSST indicate a beneficial effect on working memory and executive function.

Series [3] relates to normal subjects. The experiment in a line: CogState battery in MAD studies. It counts as in vivo, Human. The method, then: The impact of the test compound on cognition in normal subjects was assessed as described below. In these studies, subjects were treated with the test compound dissolved in cranberry juice. In the MAD (Multiple Ascending Dose) studies cognition was assessed using tests from the CogState battery (cogstate.com). […] The CogState battery is a proprietary computerized cognitive battery of tests measure various cognitive domains including: attention, identification capability, working memory, visual memory, and executive function. […] The magnitude of the effects were, in many cases, significant with effect sizes being >0.4 (a threshold effect size which is commonly accepted as having clinical significance).

The subject of series [4] is patients suffering from schizophrenia. The experiment in a line: MMN and P300 evoked responses (oddball sequence) in schizophrenia patients. It counts as in vivo, Human. On the procedure:
The test described above was used to study the effect of the test compound on cognition in patients suffering from schizophrenia. Prior to testing, the patients were dosed with: 1 mg of the test compound daily, 0.3 mg of the test compound daily or were administered a placebo for 20 days. Subjects were tested as described below.
The MMN and P300 components were elicited during the so-called oddball sequence. The stimulus sequence was a series of lower (500 Hz) and higher (1000 Hz) pitched pure tones presented at a rate of 1 tone per 0.6 sec. The tones were 50 msec in duration, 50 dB above hearing level, and randomly interspersed. The higher pitched tone was the oddball event. Across the series of 600 tones, it occurred at a probability of 0.2. The other tone occurred at the complementary probability of 0.8. Patients were instructed to ignore the tones and instead attend to a magazine held in the lap.
During the task, EEG and EOG activity were digitized at a rate of 500 Hz per channel for 50 msec preceding and 500 msec following stimulus onset. Trials contaminated by eyeblinks or eye movements were removed. An off-line program digitally filtered (bandpass=0.1-30 Hz, 12 db roll-off) responses to the rare and frequent events and constructed averaged event related responses for each electrode. At the FCz electrode, the MMN was measured by an automated algorithm that computed the summed amplitude, relative to the prestimulus baseline, over a 100-200 msec time window following the onsets of the rare (oddball) and frequent tones. MMN was then recalculated as the voltage difference between these responses. P300 amplitude was measured at the Pz electrode site as the peak amplitude between 250 and 500 msec following stimulus onset.
MMN and P300 amplitude reflect activation of multiple precortical and cortical pathways sensitive to stimulus novelty, short term memory, and attention. MMN was calculated as the voltage difference over 100-200 msec post-stimulus onset between the responses to the rare and frequent stimuli. […] P300 is not entirely independent of MMN. P300 was calculated as the peak amplitude relative to the average voltage of the waveform during the 50 msec prestimulus period. A more positive P300 response is indicative of improved cognitive function. P300 is maximal in amplitude when the eliciting stimulus is both rare and task relevant (i.e., attended). In the present study, the rare stimulus was not task relevant. In fact, the patient was instructed to perform no task and to ignore the stimuli. In the present study, therefore, P300 amplitude is very small in comparison to amplitudes recorded under active task conditions. The present P300 component is more similar to the small, frontally-generated P300a described by Knight and colleagues than the large, parietally-generated P300b described in most studies of attentional dysfunction in schizophrenia.
In the analysis of P50 and N100 the baseline value was the covariate and all values obtained during the treatment period were averaged together. Data loss from unidentifiable MMN and P300 components was minimal. These analyses were conducted upon data obtained from n=4 patients treated with placebo, n=7 patients treated with 0.3 mg of the test compound, and n=8 patients treated with 1.0 mg of the test compound.

Turning to `Cl.O=C(N[C@H]1CN2CCC1CC2)c1cc2cccc(Cl)c2s1`, the Cmax free in series [1] was determined as 0.828 nM. The “cognition in Digit Symbol Substitution Test” value in the series on normal subjects [2] is reported as “pro-cognitive effects”. Also, the effect sizes in the series with normal subjects [3] (CogState, in many cases) was greater than 0.4. For the same compound, the effect on attention entry in the series with normal subjects [3] (CogState, normal subjects) is “without having a stimulatory effect on attention”. Besides, the “impact on visual motor skills, learning, executive function, and delayed memory” value with normal subjects [3] (normal subjects, MAD studies, CogState) is recorded as “positive impact”. The “cognition in CogState battery” value in the series on normal subjects [3] (normal subjects, MAD studies, daily dose as low as 1 mg) is “pro-cognitive effects”. Besides, the “MMN component vs placebo” value in series [4] (0.3 mg daily for 20 days) and in series [4] (1.0 mg daily for 20 days) was “significantly (p<0.05) larger” throughout. Further, the “P300 component vs placebo” value in series [4] (0.3 mg daily for 20 days) and in series [4] (1.0 mg daily for 20 days) was “significantly (p<0.05) larger” in each case. In addition, in series [4] (0.3 and 1.0 mg daily, dose-related, F=4.96, P=0.02, FIG. 3A), the MMN amplitude result is given as “increased”. Also, the P300 amplitude entry in series [4] (0.3 and 1.0 mg daily, dose-related, F=6.88, P=0.008, FIG. 3B) was “increased”.

The values are drawn from patent US8815933B2 (EnVivo Pharmaceuticals, Inc., priority 2008, dated 2014).
